Where two headings read alike, the source gives them in different places.
Experiments:
full-length DENV3 NS5 = molecular target: T1, full-length DENV3 NS5 (Dengue virus type 3, UniProt P27915); assay: biochemical
T1 construct: full-length NS5 proteins, comprising the N-terminal MTase and the C-terminal RdRp; His-tag (N, cleaved yes); SUMO (N, cleaved yes); made in house; host or cells: E. coli KRX

full-length DENV4 NS5 = molecular target: T2, full-length DENV4 NS5 (Dengue virus type 4, UniProt P09866); assay: biochemical; conditions: read-out: IC50 Polymerase assay
T2 construct: full-length NS5 proteins, comprising the N-terminal MTase and the C-terminal RdRp; His-tag (N, cleaved yes); SUMO (N, cleaved yes); made in house; host or cells: E. coli KRX

DENV1 (Mochizuki strain) = assay: Cell-based antiviral assay, viral RNA in supernatant of infected Vero cells (RT-qPCR); parameters: species or system Dengue virus serotype 1 (DENV1); conditions: Dengue virus, 72 h, viral RNA 3 days after infection
Procedure: (§1) The experiments were performed in triplicate.

DENV2 16681 strain = assay: as above; conditions: Dengue virus, 72 h; DENV2 16681, Vero cells, viral RNA 3 days after infection
Procedure: as §1

DENV3 (H87 strain) = assay: as above; conditions: 72 h, viral RNA 3 days after infection
Procedure: as §1

DENV4 (H241 strain) = assay: as above; conditions: 72 h, viral RNA 3 days after infection
Procedure: as §1

DENV2 P04/08 strain = assay: as above; conditions: 72 hours after infection
[1] = tested on: recombinant DENV2 (WT, C780A, C780Q NS5); assay type: cell-based
Vero cells = assay: Cytotoxicity, WST-1 assay; assay type: cell-based; conditions: two days culture
Procedure: The cytotoxic activities of the compounds were tested using a WST-1 assay (Roche Diagnostics), according to the manufacturer’s instructions. […] Ten μL of WST-1 solution was added to each well, and the cells were further incubated for 30 min. The absorbance was measured at 450 nm, with subtraction of the nonspecific background at 650 nm.

[2] = tested on: NS5 proteins from DENV1–4; assay type: biochemical; conditions: range over NS5 proteins from DENV1–4; read-out: IC50 values, RdRp activities
DENV1–4 infections = assay: Cell-based antiviral assay, summary over serotypes; conditions: range over DENV1–4; read-out: EC50 values, antiviral activities
Procedure: as §1

Compound CC(=O)Oc1ccc2oc(=O)sc2c1 [RK-0404678, (2-Oxo-1,3-benzoxathiol-5-yl) acetate] has an IC50 (full-length DENV3 NS5) of 287 ± 11 µM, an IC50 (full-length DENV4 NS5) of 445 ± 23 µM and an EC50 (DENV1 (Mochizuki strain)) of 29.5 ± 4.2 µM. It also gave an EC50 (DENV2 16681 strain) of 6 ± 0.3 µM, an EC50 (DENV3 (H87 strain)) of 29.4 ± 1.8 µM and an EC50 (DENV4 (H241 strain)) of 31.9 ± 2.8 µM. The “antiviral effect on DENV2 P04/08 strain compared with 16681 strain” value (DENV2 P04/08 strain) was “comparable effect”, the EC50 ([1]; DENV2 NS5 C780A mutant virus (Site 1)) was 3.3 ± 1.1 µM and the EC50 ([1]; DENV2 NS5 C780Q mutant virus (Site 1)) was 12.8 ± 2.2 µM. For the same compound, the EC50 ([1]; WT (recombinant) DENV2 virus) was 7.1 ± 0.67 µM, the “cytotoxicity in Vero cells” value (Vero cells) was “marginal cytotoxicity even at the highest concentration (50 μM)” and the IC50 [2] was 46.2 to 445 µM. The EC50 (DENV1–4 infections) was 6 to 31.9 µM.
